Laboratory results from patent publication US7326562B2, “Biological indicator system to detect effectiveness of sterilization” (priority 1999, dated 2008).

Experiments:
B. subtilis spores [1] = system: B. subtilis spores
Protocol: The sterilization cycle requires about 70 minutes to complete. […] The STERRAD* employed a non-biological indicator comprising a Chemical Indicator strip supplied by the manufacturer which changed from red to yellow (or lighter) as compared to the color bar on the strip when exposed to H2O2 during the processing cycle. Also, a BI (B. subtilis spore strips) was incubated in a nutrient broth for 7 days to determine successful sterilization.
For all H2O2 sterilized cultures, the BI challenge was one ml of B. subtilis spores at a concentration of 1.7×10^8/ml which were air-dried onto a glass slide as described previously elsewhere herein. After completion of the STERRAD Cycle of approximately 70 minutes, the BI culture was diluted and the cells were suspended in 5% BHI, as described above. The culture was diluted to the same concentration as the control BI and the sample was heat-shocked at 70° C. for 10 minutes and incubated at 37° C. for 24 hours to detect any viable cells present. MALS measurements were obtained at 0 minutes, 30 minutes, 1 hour, 2 hours, 3 hours, 4 hours, and 4.75 hours, and parallel samples were obtained for analysis by AODC direct counting. Direct plating on TSA was also performed to determine the presence of viable cells. […]

[2] = system: B. subtilis (Difco) spores; test: MALS (DAWN-F) measurement of spores directly after ozone treatment; assay type: cell-based, Bacillus subtilis; details: 0.3 ppm ozone; for MALS Intensity: no incubation
Source text: The MALS instrument used was the DAWN Model F (Wyatt Technology Corp., Santa Barbara, Calif.), which is a flow-through instrument permitting the liquid from a sample to pass through a flow cell while continuously making measurements on the particles as they pass through the cell. Otherwise, the instrument is virtually identical to the DAWN Model B previously described elsewhere herein.
(§1) Ozone model CD-1B (Aqua-Flo, Inc., Baltimore, Md.), equipped with voltage regulator and oxygen flow controls was used to generate an ozone doses of 0.3 to 0.35 ppm in water. Ozone was generated from oxygen, supplied from an oxygen tank with O2 purity of more than about 99.9%. The generator was fitted with a voltage regulator and an oxygen flow regulator which enabled the precise setting of oxygen flow and voltage parameters such that the desired concentration of O3 could be maintained continuously. An oxygen flow rate of 8 ft^3/hr, at 5 psi, and approximately 70 to 80 amps was used to generate the concentrations specified. Excess (head) ozone was passed through a platinum catalyst that converted it back to oxygen where it was released into a vented chemical safety hood.
(§2) By the use of toggle switches, the ozone was directed through glass spargers into either of two specifically designated 2-liter Erlenmeyer flasks containing one liter of distilled water. Either a solution of a test chemical or a suspension of microorganisms, or both, was introduced into the flasks via tubes at the top, which passed into the flasks through rubber stoppers that sealed off the system. Samples could be withdrawn at the bottom of the flasks by opening a stopcock. The ozone concentrations were measured using chemical oxidation of indigo dye using an Ozone Pocket Colorimeter™ per manufacturer's instructions (HACH, Inc., Loveland, Colo.). Bacillus spores, at a concentration of 2×10^6 spores/milliliter were exposed to ozone for treatment times of 0, 5, 10, 15, 20, and 30 minutes, after which times they were measured by MALS, AODC, and CFU, respectively.
(§3) Ozone treatment of microbes is representative of cold sterilization and disinfection. […] Bacillus subtilis spores, at an concentration of 2×10^6 spores/milliliter were exposed to ozone at treatment times of 0, 5, 10, 15, 20, and 30 minutes, at which times they were measured by MALS, AODC, and CFU, respectively. All measurements were made on spores immediately and without the need for incubation. […] These measurements could be correlated directly with the cumulative concentration of ozone with increasing time of exposure. […] For a kill of […] (reduction from 2.1×10^6 to 1.8×10^3 spores/ml) the CT is 0.3 ppm×15 min=4.5. For a kill of 99.995% (reduction from 2.1×10^6 to 10 spores/mL), it is 0.3 ppm×30 min=9.
(§4) Table 2 gives a direct comparison of MALS, AODC, and CFU data for ozone treatment of B. subtilis spores over at 5-minute intervals over a 30-min period. All MALS and AODC measurements were made on spores immediately after treatment, and in the absence of incubation. Spores were plated immediately onto Trypticase Soy Agar after treatment to verify the number of surviving spores (CFU).
(§5) Ozone treatment of microbes is representative of cold sterilization and disinfection.

[3] = system: B. stearothermophilus spores; test: Ozone treatment of B. stearothermophilus spores, MALS directly after treatment; assay type: cell-based, Bacillus stearothermophilus; details: about 0.3 ppm ozone, 5 to 20 min, 0 hours post-treatment
Source text: as §1
By the use of toggle switches, the ozone was directed through glass spargers into either of two specifically designated 2-liter Erlenmeyer flasks containing one liter of distilled water. […] The ozone concentrations were measured using chemical oxidation of indigo dye using an Ozone Pocket Colorimeter™ per manufacturer's instructions (HACH, Inc., Loveland, Colo.). Bacillus spores, at a concentration of 2×10^6 spores/milliliter were exposed to ozone for treatment times of 0, 5, 10, 15, 20, and 30 minutes, after which times they were measured by MALS, AODC, and CFU, respectively. […]

B. subtilis = details: 8% humidified ozone sterilization; cited from earlier work
[4] = biological target: B. subtilis (Difco) spores; test: Viable plate counts (CFU) on trypticase soy agar after ozone treatment; assay type: cell-based, Bacillus subtilis; details: for kill of the spore population / viable spores after treatment / CFU % of AODC / CFU % of Control / CFU/ml: 0.3 ppm ozone; for viable spores after treatment: reduction from 2.1×10^6; for CFU/ml: CFU after 24 hours incubation
Protocol: Dried spores from the sample vials or glass slides were eluted into sterile distilled water, plated directly, serially diluted (up to 10^−6), and plated onto TSA. After 18 to 24 hours of incubation at 37° C. for B. subtilis and 55° C. for B. stearothermophilus), the viable colony forming units (CFU) were counted. Plates that had no colonies were incubated for several more days (up to 7 days) to ensure that there were no damaged, but viable spores. From each of the same samples, Trypticase Soy broth was inoculated and incubated for up to seven days to ensure that there were no surviving bacteria in the negative assays.
The spores were eluted from the biological indicator slides or scintillation vials into 20 ml of sterile distilled water and 0.1 ml of the sample was spread onto TSA plates.
as §2, §3, §4, §5

B. stearothermophilus = details: 8% humidified ozone sterilization; cited from earlier work
[5] = system: B. subtilis (Difco) spores; test: Acridine orange direct counts (AODC) of spores directly after ozone treatment; assay type: cell-based, Bacillus subtilis; details: 0.3 ppm ozone
Protocol: One ml samples of the culture to be counted were placed into small conical vials and the cell culture was fixed by adding 30 μl of a 36.5-38.0% formalin solution. After fixing the culture with formalin for at least about 30 minutes, the sample was either refrigerated or the AO staining procedure was carried to completion. To stain, 100 μl of a 0.1% acridine orange solution were added to the 1.0 ml spore sample and the dye was allowed to react with the spores for approximately five to eight minutes. Polycarbonate membranes (Poretics®, Osmonics, Livermore Calif.) 25 mm in diameter, 0.2 μm porosity, and black in color were soaked in sterile, distilled water for about 5 to 10 minutes. The membranes were then placed on a millipore filter apparatus. One ml aliquots from control or treated samples which had been stained with AO were placed onto the filters and vacuum was applied. The samples were filtered until the fluid was removed. Then, the filter apparatus container from which the fluid had been removed was rinsed with distilled water to ensure that all cells or spores were impinged upon the filter surface. The filter was laid upon a clean microscope slide, a drop of mineral oil applied to the surface of the membrane, and a clean coverslip was laid onto the membrane.
The AODC slide was examined under a microscope using ultraviolet optics (Olympus VANOX-T equipped for light, phase-contrast, and UV-fluorescence microscopy) which microscope was also fitted with photographic and TV Monitoring equipment. A scaled grid in the eyepiece of the microscope permitted the direct counting of the bacterial spores, bacilli, or other bodies that are stained by the dye and which fluoresce under the UV optics. To determine the number of cells/spores in a sample, the number counted in the entire grid was multiplied by 3.3×10^4 and by any dilution factor of the sample.
as §2, §4, §5

B. subtilis spores [6] = test: Ethylene oxide sterilization of biological indicator; viability by MALS, AODC and TSA plating; assay type: cell-based, Bacillus subtilis
Protocol: The ethylene oxide sterilizer used herein was operated at the Department of Veterans Affairs, Processing & Distribution Section, VAHMCS Baltimore Division (Baltimore, Md.). The sterilizing cycle was fixed to include a 2.5 hour exposure to ethylene oxide followed by a de-gassing cycle of 14.5 hours. A non-biological indicator was used to also monitor the sterilization. A surgicot 2 (Surgicot, Research Triangle Park, N.C.) laminated EO Gas Indicator (Propper Manufacturing Co., Long Island, N.Y.) which registers a change in color after correct processing has been accomplished was used for this purpose.
After completion of the EO sterilization cycle, the BI culture was diluted and the spores were suspended in 5% BHI, as described above. […] Following heat-shock, the sample was incubated at 37° C. for 24 hours to ensure that viable cells could be detected if present. […] Direct plating on TSA was also performed to further determine the presence of viable cells.

OO [H2O2, hydrogen peroxide]
MALS N/No value (B. subtilis spores [1]; H2O2-sterilized BI after 3 hours of incubation vs control at 0 minutes): 1.0
growth on TSA plates (B. subtilis spores [1]; STERRAD* cycle about 70 minutes, 10 plates on each of triplicate samples): no growth on any plate

O=[O+][O-] [ozone]
MALS % of control ([2]; 5 min treatment): 65.33%
MALS Intensity ([2]; 5 min treatment, log weighted average of intensities at all detectors): 1591.92
MALS % of control ([2]; 10 min treatment): 51.89%
MALS Intensity ([2]; 10 min treatment): 1264.26
MALS % of control ([2]; 15 min treatment): 42.67%
MALS Intensity ([2]; 15 min treatment): 1039.64
MALS % of control ([2]; 20 min treatment): 34.94%
MALS Intensity ([2]; 20 min treatment): 851.5
MALS % of control ([2]; 30 min treatment): 27.96%
MALS Intensity ([2]; 30 min treatment): 681.2
change in spore concentrations (MALS) [3]: decreases in spore concentrations with increasing exposure to ozone
D value (time required to reduce the number of spores by 1 log) (B. subtilis): 5 minutes
kill of the spore population ([4]; 5 min): 41.4%
viable spores after treatment ([4]; 5 min): 1.23×10^6 spores/ml
CFU % of AODC ([4]; 5 min treatment): 76.9%
CFU % of Control ([4]; 5 min treatment): 58.5%
CFU/ml ([4]; 5 min treatment): 1.23 × 10^6 CFU/ml
CFU % of AODC ([4]; 10 min treatment): 14.5%
CFU % of Control ([4]; 10 min treatment): 8.0%
CFU/ml ([4]; 10 min treatment): 1.68 × 10^5 CFU/ml
kill of the spore population ([4]; 15 min): 91%
viable spores after treatment ([4]; 15 min): 1.8×10^3 spores/ml
CFU % of AODC ([4]; 15 min treatment): 0.14%
CFU % of Control ([4]; 15 min treatment): 0.09%
CFU/ml ([4]; 15 min treatment): 1.80 × 10^3 CFU/ml
CFU % of AODC ([4]; 20 min treatment): 0.04%
CFU % of Control ([4]; 20 min treatment): 0.009%
CFU/ml ([4]; 20 min treatment): 1.82 × 10^2 CFU/ml
kill of the spore population ([4]; 30 min): 99.995%
viable spores after treatment ([4]; 30 min): 10 spores/mL
CFU % of AODC ([4]; 30 min treatment): 0.04%
CFU % of Control ([4]; 30 min treatment): 0.00005%
CFU/ml ([4]; 30 min treatment): 10 CFU/ml
CT (concentration x time) value ([4]; 0.3 ppm×5 min): 1.5
CT (concentration x time) value ([4]; 0.3 ppm×15 min): 4.5
CT (concentration x time) value ([4]; 0.3 ppm×30 min): 9
D value (time required to reduce the number of spores by 1 log) (B. stearothermophilus): 4.3 minutes
AODC % of control ([5]; 5 min treatment): 68.3%
AODC Spores per ml ([5]; 5 min treatment): 1.6 × 10^6 spores per ml
AODC % of control ([5]; 10 min treatment): 49.5%
AODC Spores per ml ([5]; 10 min treatment): 1.16 × 10^6 spores per ml
AODC % of control ([5]; 15 min treatment): 55.1%
AODC Spores per ml ([5]; 15 min treatment): 1.29 × 10^6 spores per ml
AODC % of control ([5]; 20 min treatment): 20.8%
AODC Spores per ml ([5]; 20 min treatment): 4.87 × 10^5 spores per ml
AODC % of control ([5]; 30 min treatment): 21.5%
AODC Spores per ml ([5]; 30 min treatment): 5.03 × 10^5 spores per ml

C1CO1 [EO, ethylene oxide]
bacterial growth of BI immersed in water (B. subtilis spores [6]; EO samples immersed within 10, 50, and 100 ml of water): all positive for bacterial growth
viable colonies on TSA plates (B. subtilis spores [6]; spores dried on glass slide, 2.5 hour EO exposure, heat-shocked, incubated in 5% BHI): no viable colonies
AODC direct counts during incubation (B. subtilis spores [6]; spores dried on glass slide, EO cycle, 0 to 4 hours incubation): no increase in direct counts
